In US10358425B1, “Dihydropyrimidones and pharmaceutical compositions thereof” (King Abdulaziz University, priority 2018, dated 2019):

melting point: 267 °C
Compound: O=C1NC(O)=C(C(=O)c2ccccc2)C(c2ccccc2)N1 (stereo not shown) [Compound 7, 5-benzoyl-6-hydroxy-4-phenyl-3,4-dihydropyrimidin-2(1H)-one]
